From patent US12441733B2, “Substituted 2,4-dioxotetrahydropyrimidines as intermediates in the synthesis of bruton's tyrosine kinase inhibitors” (Novartis AG, priority 2018, dated 2025)
Read-outs that look alike come from different tables or passages of the source.

Tests used:
Assay type in all cases: cell-based
IKZF3-GFP = biological target: T1, IKZF3-GFP (Homo sapiens, UniProt Q96SW2+Q9UKT9); experiment: IKZF3-GFP protein abundance flow cytometry assay in HEK293A cells; conditions: Table 3, positive control compounds; % protein remaining at maximum degradation
T1 construct: expressed in transfected cells; host or cells: HEK293A (Invitrogen R70507), lentiviral transduction with pLenti6-IKZF3-GFP-Ires-RFP, blasticidin selection
Procedure: BTK-GFP and IKZF3-GFP protein abundance flow cytometry assay in HEK293A cells:
Degradation of BTK or IKZF3 was measured in HEK293A cells (Invitrogen R70507) expressing either BTK-GFP and RFP or IKZF3-GFP and RFP from a stably integrated bicistronic BTK-GFP-iresRFP or IKZF3-GFP-iresRFP construct, respectively. Reduction of the GFP signal measured by flow cytometry served as readout for BTK or IKZF3 degradation after degrader treatment.
By analogy the bicistronic pLenti6-IKZF3-GFP-iresRFP was engineered by gateway cloning of IKZF3 from a pENTR221-IKZF3(STOP-Leu) construct into the previously described pLenti6-DEST-GFP-Ires-RFP vector using the LR Clonase kit (Invitrogen 11791-019) according to the manufacturer's manual. All vectors described have been sequenced for verification.
ii) Engineering of Stably Expressing 293A BTK-GFP-Ires-RFP and IKZF3-GFP-Ires-RFP Sensor Cells
293A BTK-GFP-Ires-RFP and IKZF3-GFP-ires-RFP sensor cells were generated by lentiviral vector transduction using the pLenti6-BTK-GFP-Ires-RFP or pLenti6-IKZF3-GFP-Ires-RFP sensor construct described before. Lentiviral particles were produced in HEK293FT cells (Invitrogen R70007) by co-transfection of 500 ng pLenti6-BTK-GFP-ires-RFP or pLenti6-IKZF3-GFP-Ires-RFP, 500 ng delta8.71 and 200 ng pVSVG diluted in 100 μl OptiMEM serum free medium (Invitrogen #11058-021) that was mixed after 5 min preincubation with 3 μl of Lipofectamine2000 (Invitrogen #11668-019) in 97 μl OptiMEM serum free medium. The mix was incubated for another 20 min at RT and then added on 1 ml of a freshly prepared suspension of HEK293FT cells in a well of a 6-well plate (concentration 1.2×10^6 cells/ml). 1 day after transfection, the medium was replaced with 1.5 ml of complete growth medium (DMEM high Glucose+10% FCS+1% L-Glutamine+1% NEAA+1% NaPyr.). 48 h post transfection supernatant containing viral transducing particles was collected and frozen at −80° C.
Two days before transduction with viral particles 1×10^5 HEK293A cells (Invitrogen R70507) were seeded in 2 ml growth medium in a well of a 6-well plate. Infection was performed with 90 μl of collected supernatant containing viral transducing particles in 1 ml medium including 8 μg/ml polybrene. 24 h post infection, stably transfected cells were selected with blasticidin at a concentration of 8 μg/ml.
Iii) Quantitative BTK-GFP and IKZF3-GFP Abundance Measurements
Stable HEK293A-BTK-GFP-iresRFP cells were maintained in complete growth medium (DMEM high Glucose+10% FCS+1% L-Glutamine+1% NEAA+1% NaPyr.) with passaging performed twice per week. On Day 0, HEK293A-BTK-GFP-iresRFP or HEK293A-IKZF3-GFP-iresRFP and HEK293A-iresRFP cells were seeded at 10,000 cells/well in a 96-well microtiter plate in 260 μl complete medium. On Day 1, cells were treated in duplicate with 10-point 1:3 dilution series of compound using the HP D300 Digital Dispenser (Tecan). DMSO concentrations were normalized across the plate to 0.1%. On Day 2, after 24 h of incubation at 37° C., treatment media was discarded, cells rinsed with 100 μl/well PBS and then detached using 40 μl trypsin/well for 5 min. Trypsin was neutralized with 100 μl/well PBS+20% FCS). Flow cytometry was performed on the samples using the BD FACS CANTO II (Becton Dickinson). Cell identification was then performed using forward (FSC) vs. side scatter (SSC) plots. […] Median GFP values for 5,000 single cells are used to determine BTK levels. Median GFP values from HEK293A-iresRFP are used as a background signal and thus defining 0% BTK signal. Median GFP values from DMSO treated HEK293A-BTK-GFP-iresRFP or HEK293A-IKZF3-GFP-iresRFP are used to define 100% BTK signal for subsequent DC50 curves (concentration at 50% BTK degradation).

TMD8 cells = experiment: Resazurin cell viability (proliferation) assay in TMD8 DLBCL cells; conditions: TMD8 cells (BTK dependent), 72 h, 50% growth inhibition vs vehicle, read-out: TMD8 Prol GI50
Summary of the method: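 TMD8 cells were seeded at 1×10^4 per well and treated 3 h later with compound, in an 8-point 1:4 dilution series starting at 1 μM, or DMSO, for 72 h at 37° C. Resazurin was added at 13 μg/ml final for the last 2 h, and fluorescence was read at ex 530/em 600 nm. GI50 versus vehicle was derived by curve fitting from triplicates.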

BTK-GFP = biological target: T2, BTK-GFP (Homo sapiens, UniProt Q06187+Q96SW2); experiment: BTK-GFP protein abundance flow cytometry assay in HEK293A cells; conditions: HEK293A BTK-GFP-iresRFP cells, 24 h; for DC50: GFP signal by flow cytometry, concentration at which 50% maximal degradation was observed; for BTK deg Amax: % protein remaining at the concentration at which maximum degradation is seen
T2 construct: expressed in transfected cells; host or cells: HEK293A (Invitrogen R70507), lentiviral transduction with pLenti6-BTK-GFP-Ires-RFP, blasticidin selection
Summary of the method: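 HEK293A cells stably expressing bicistronic BTK-GFP-IRES-RFP (C-terminal GFP tag) via lentiviral vector. Degradation read by flow cytometry as loss of GFP signal after degrader treatment. DC50 is concentration giving 50% maximal degradation; Amax is % protein remaining at maximal degradation.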

OCI-LY3 cells = experiment: Resazurin cell viability (proliferation) assay in OCI-LY3 DLBCL cells; conditions: OCI-LY3 cells (BTK independent), 72 h, 50% growth inhibition vs vehicle, read-out: OCI-LY3 Prol GI50
Summary of the method: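 Cells were seeded at 1×10^4 per well and dosed 3 h later: 8-point 1:4 dilutions from 10 μM (OCI-LY3), in triplicate, 72 h at 37 °C. Resazurin (13 μg/ml final) was added for the last 2 h and fluorescence read at 530/600 nm. GI50 is relative to DMSO vehicle, typically from ≥2 independent experiments.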

T2 sequence (Q06187 whole entry): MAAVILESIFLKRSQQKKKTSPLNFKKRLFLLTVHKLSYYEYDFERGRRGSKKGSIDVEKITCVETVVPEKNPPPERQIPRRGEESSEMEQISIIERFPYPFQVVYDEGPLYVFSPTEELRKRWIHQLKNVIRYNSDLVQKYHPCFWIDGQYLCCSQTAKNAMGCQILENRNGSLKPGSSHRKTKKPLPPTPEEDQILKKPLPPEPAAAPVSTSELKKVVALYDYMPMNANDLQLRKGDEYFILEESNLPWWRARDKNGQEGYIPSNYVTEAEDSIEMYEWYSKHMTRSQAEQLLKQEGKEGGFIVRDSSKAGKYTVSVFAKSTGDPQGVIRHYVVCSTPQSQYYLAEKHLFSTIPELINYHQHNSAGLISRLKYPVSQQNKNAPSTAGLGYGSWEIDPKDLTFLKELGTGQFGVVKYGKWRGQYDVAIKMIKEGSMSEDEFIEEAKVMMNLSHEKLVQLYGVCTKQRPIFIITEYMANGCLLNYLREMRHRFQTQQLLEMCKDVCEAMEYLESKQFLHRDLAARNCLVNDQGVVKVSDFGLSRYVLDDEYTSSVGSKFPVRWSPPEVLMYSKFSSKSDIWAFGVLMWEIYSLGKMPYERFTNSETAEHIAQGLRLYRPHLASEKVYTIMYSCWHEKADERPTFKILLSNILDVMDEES
T2 sequence (Q96SW2 whole entry): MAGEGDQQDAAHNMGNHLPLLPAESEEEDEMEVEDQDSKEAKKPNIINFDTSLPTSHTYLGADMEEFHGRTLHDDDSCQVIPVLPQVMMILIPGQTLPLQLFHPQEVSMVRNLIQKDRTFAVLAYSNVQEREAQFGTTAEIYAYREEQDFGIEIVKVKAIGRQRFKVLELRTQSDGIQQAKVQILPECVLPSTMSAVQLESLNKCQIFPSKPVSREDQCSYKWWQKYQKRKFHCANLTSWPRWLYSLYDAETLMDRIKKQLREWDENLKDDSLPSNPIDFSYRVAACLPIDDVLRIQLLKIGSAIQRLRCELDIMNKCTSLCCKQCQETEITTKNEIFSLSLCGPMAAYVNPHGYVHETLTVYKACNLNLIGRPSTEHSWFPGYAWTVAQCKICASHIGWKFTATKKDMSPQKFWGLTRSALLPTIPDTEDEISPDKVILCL
T2 sequence (Q16531 whole entry partner): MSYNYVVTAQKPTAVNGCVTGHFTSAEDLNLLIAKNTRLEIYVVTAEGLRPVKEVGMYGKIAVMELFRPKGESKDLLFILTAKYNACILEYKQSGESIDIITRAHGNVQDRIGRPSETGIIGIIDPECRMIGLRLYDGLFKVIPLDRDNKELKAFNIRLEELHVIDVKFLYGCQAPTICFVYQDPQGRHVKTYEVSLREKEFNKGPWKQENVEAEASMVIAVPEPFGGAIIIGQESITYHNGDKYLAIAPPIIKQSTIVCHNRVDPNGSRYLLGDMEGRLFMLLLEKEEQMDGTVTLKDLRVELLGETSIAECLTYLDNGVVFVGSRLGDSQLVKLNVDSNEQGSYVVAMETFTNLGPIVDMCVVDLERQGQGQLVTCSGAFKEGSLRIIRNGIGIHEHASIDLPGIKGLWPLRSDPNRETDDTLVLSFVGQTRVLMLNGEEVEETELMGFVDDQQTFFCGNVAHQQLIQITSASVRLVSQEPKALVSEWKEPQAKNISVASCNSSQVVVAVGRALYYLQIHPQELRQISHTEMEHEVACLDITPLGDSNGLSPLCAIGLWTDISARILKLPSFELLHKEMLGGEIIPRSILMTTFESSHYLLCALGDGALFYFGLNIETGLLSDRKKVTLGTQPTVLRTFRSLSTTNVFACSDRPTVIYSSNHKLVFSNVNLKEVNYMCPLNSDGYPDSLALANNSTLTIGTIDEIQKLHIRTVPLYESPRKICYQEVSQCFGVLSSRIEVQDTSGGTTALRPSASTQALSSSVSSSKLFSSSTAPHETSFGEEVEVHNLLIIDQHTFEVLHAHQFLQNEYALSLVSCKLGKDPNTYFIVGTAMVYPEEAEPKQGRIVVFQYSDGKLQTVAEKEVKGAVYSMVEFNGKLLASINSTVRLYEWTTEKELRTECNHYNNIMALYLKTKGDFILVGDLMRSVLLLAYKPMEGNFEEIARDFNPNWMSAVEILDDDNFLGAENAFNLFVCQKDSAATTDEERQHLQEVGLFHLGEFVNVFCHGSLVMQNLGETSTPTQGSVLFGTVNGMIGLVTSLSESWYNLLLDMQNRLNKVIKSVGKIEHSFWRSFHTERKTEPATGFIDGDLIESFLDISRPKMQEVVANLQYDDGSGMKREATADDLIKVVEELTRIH
T1 sequence (Q9UKT9 whole entry): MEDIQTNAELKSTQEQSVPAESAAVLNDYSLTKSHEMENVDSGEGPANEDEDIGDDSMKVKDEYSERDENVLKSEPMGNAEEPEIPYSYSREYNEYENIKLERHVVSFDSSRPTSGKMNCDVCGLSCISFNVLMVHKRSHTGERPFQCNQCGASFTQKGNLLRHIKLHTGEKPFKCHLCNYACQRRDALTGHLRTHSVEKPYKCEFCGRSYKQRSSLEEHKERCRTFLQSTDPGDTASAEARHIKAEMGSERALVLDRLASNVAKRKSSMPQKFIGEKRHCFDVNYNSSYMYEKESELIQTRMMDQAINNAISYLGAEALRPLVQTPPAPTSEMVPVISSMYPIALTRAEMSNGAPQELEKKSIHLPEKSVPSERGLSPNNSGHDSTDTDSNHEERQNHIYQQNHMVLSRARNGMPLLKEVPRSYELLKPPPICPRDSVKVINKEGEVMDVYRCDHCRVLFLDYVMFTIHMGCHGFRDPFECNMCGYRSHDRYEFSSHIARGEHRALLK
T1 sequence (Q96SW2 whole entry): as the sequence (Q96SW2 whole entry) above
T1 sequence (Q16531 whole entry partner): as the sequence (Q16531 whole entry partner) above

IKZF deg Amax (IKZF3-GFP) [%]	DC50 (BTK-GFP) [nM]	BTK deg Amax (BTK-GFP) [%]	GI50 (OCI-LY3 cells; Homo sapiens) [nM]	Compound	GI50 (TMD8 cells; Homo sapiens) [nM]	GI50 (TMD8 cells) [nM]	GI50 (OCI-LY3 cells) [nM]
–	0.9	4.1	4440	COc1ccc(C(=O)N2CCC(CCN3CCC(Oc4ccc(-c5cc6c(-c7cc(F)cc(NC(=O)c8ccc(C(C)(C)O)cc8F)c7C)ncnc6[nH]5)cc4)CC3)CC2)cc1N1CCC(=O)NC1=O [Compound 38, N-(3-(6-(4-((1-(2-(1-(3-(2,4-dioxotetrahydropyrimidin-1(2H)-yl)-4-methoxybenzoyl)piperidin-4-yl)ethyl)piperidin-4-yl)oxy)phenyl)-7H-pyrrolo[2,3-d]pyrimidin-4-yl)-5-fluoro-2-methylphenyl)-2-fluoro-4-(2-hydroxypropan-2-yl)benzamide]	0.51	–	–
–	77.1	10.8	> 10000	COc1ccc(C(=O)N2CCC3(CCN(Cc4ccc(-c5cc6c(-c7cc(F)cc(NC(=O)c8ccc(C(C)(C)O)cc8F)c7C)ncnc6[nH]5)cc4)C[C@@H]3CO)CC2)cc1N1CCC(=O)NC1=O (single isomer, unassigned) [Compound 24]	5.98	–	–
–	38.5	4.6	> 10000	COc1ccc(C(=O)N2CCC3(CCN(Cc4ccc(-c5cc6c(-c7cc(F)cc(NC(=O)c8ccc(C(C)(C)O)cc8F)c7C)ncnc6[nH]5)cc4)CC3)[C@@H](CO)C2)cc1N1CCC(=O)NC1=O (single isomer, unassigned) [Compound 2]	3.57	–	–
–	5	4.7	> 10000	COc1ccc(C(=O)N2CCC3(CCN(CCCc4ccc(-c5cc6c(-c7cc(F)cc(NC(=O)c8ccc(C(C)(C)O)cc8F)c7C)ncnc6[nH]5)cc4)CC3)CC2)cc1N1CCC(=O)NC1=O [Compound 11, N-(3-(6-(4-(3-(9(3-(2,4-Dioxotetrahydropyrimidin-1(2H)-yl)-4-methoxybenzoyl)-3,9-diazaspiro[5.5]undecan-3-yl)propyl)phenyl)-7H-pyrrolo[2,3-d]pyrimidin-4-yl)-5-fluoro-2-methylphenyl)-2-fluoro-4-(2-hydroxypropan-2-yl)benzamide]	0.84	–	–

The remaining lines, values behind:

Compound	IKZF deg Amax (IKZF3-GFP) [%]	DC50 (BTK-GFP) [nM]	BTK deg Amax (BTK-GFP) [%]	GI50 (OCI-LY3 cells; Homo sapiens) [nM]	GI50 (TMD8 cells; Homo sapiens) [nM]	GI50 (TMD8 cells) [nM]	GI50 (OCI-LY3 cells) [nM]
Nc1cccc2c1C(=O)N(C1CCC(=O)NC1=O)C2=O (stereo not shown) [Pomalidomide, reference compound]	13.2	–	–	–	–	–	–
Cc1c(NC(=O)c2ccc(C(C)(C)O)cc2F)cc(F)cc1-c1ncnc2[nH]c(-c3ccc(CN4CCC5(CC4)CN(CCNC(=O)c4ccc(Cl)c(N6CCC(=O)NC6=O)c4)CCO5)cc3)cc12 [Compound 37, N-(3-(6-(4-((4-(2-(4-chloro-3-(2,4-dioxotetrahydropyrimidin-1(2H)-yl)benzamido)ethyl)-1-oxa-4,9-diazaspiro[5.5]undecan-9-yl)methyl)phenyl)-7H-pyrrolo[2,3-d]pyrimidin-4-yl)-5-fluoro-2-methylphenyl)-2-fluoro-4-(2-hydroxypropan-2-yl)benzamide]	–	11.3	6.5	4220	1.93	–	–
COc1ccc(C(=O)N2CCC(O[C@H]3CC[C@H](Oc4ccc(-c5cc6c(-c7cc(F)cc(NC(=O)c8ccc(C(C)(C)O)cc8F)c7C)ncnc6[nH]5)cc4)CC3)CC2)cc1N1CCC(=O)NC1=O [Compound 46, N-(3-(6-(4-(((1r,4r)-4-((1-(3-(2,4-dioxotetrahydropyrimidin-1(2H)-yl)-4-methoxybenzoyl)piperidin-4-yl)oxy)cyclohexyl)oxy)phenyl)-7H-pyrrolo[2,3-d]pyrimidin-4-yl)-5-fluoro-2-methylphenyl)-2-fluoro-4-(2-hydroxypropan-2-yl)benzamide]	–	1.7	3.6	–	–	3.59	> 10000
